What all share (test): drug sensitivity score (DSS2, normalised partial AUC of dose-response, 72 h CellTiter-Glo viability) (DSS (dimensionless)); higher = more sensitive (stronger growth inhibition / cytotoxicity); extreme values may be limits of the assay
One assay has as its system 22Rv1. The procedure, abridged:
(§1)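 Low-passage primary prostate cancer-associated fibroblasts, PF179T, WPMY-1, LNCaP and 22Rv1 cells were seeded into 384-well plates carrying pre-dispensed compounds at five doses covering a 10,000-fold range. After 72 h, viability was read by CellTiter-Glo 2.0 luminescence. Responses were scaled to vehicle and positive-control wells. The drug sensitivity score (DSS2) is a partial area under the fitted logistic dose–response curve divided by the log of its upper asymptote, computed in BREEZE; higher means more sensitive.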

For a further assay, the system named is CAF#1 (primary prostate cancer-associated fibroblasts of myCAF-like type). The procedure, abridged: as §1
The next assay has as its system CAF#2 (primary prostate cancer-associated fibroblasts of iCAF-like type). The procedure, abridged: as §1
The test system of another assay is CAF#3 (primary prostate cancer-associated fibroblasts of myCAF-like type). The procedure, abridged: as §1
A further assay has as its system CAF#4 (primary prostate cancer-associated fibroblasts of iCAF-like type). A digest of the protocol: as §1
The next assay has as its system CAF#5 (primary prostate cancer-associated fibroblasts of myCAF-like type). A digest of the protocol:
as §1

Another assay has as its system CAF#6 (primary prostate cancer-associated fibroblasts of iCAF-like type). The procedure, abridged:
as §1

A further assay relates to CAF#7 (primary prostate cancer-associated fibroblasts of myCAF-like type). A digest of the protocol:
as §1

For the next assay, the system named is LNCAP. A digest of the protocol:
as §1

In another assay the test system is PF179T. The procedure, abridged:
as §1

The test system of a further assay is WPMY-1. A digest of the protocol:
as §1

`CC[C@H](NC(=O)[C@H](C)NC)C(=O)N1C[C@@H](O)C[C@H]1Cc1c(-c2[nH]c3cc(F)ccc3c2C[C@@H]2C[C@H](O)CN2C(=O)[C@H](CC)NC(=O)[C@H](C)NC)[nH]c2cc(F)ccc12` [Birinapant] (tested concentration range 0.1-1000 nM): the drug sensitivity score with 22Rv1, with CAF#1, with CAF#2, in the assay with CAF#3, with CAF#4 and with CAF#5 was 0 each time. Also, the drug sensitivity score in the assay with CAF#6 worked out at 0.8; in the assay on CAF#7 it was 0; in the assay with LNCAP it was 0.1; in the assay on PF179T it was 0; with WPMY-1 it was 0.
Turning to `Clc1ccccc1C(c1ccccc1)(c1ccccc1)n1cccn1` [TRAM-34] (tested concentration range 0.1-1000 nM), the drug sensitivity score in the assay on 22Rv1 was 0; with CAF#1 it was 0.8; in the assay on CAF#2 it was 0.1; with CAF#3 it was 0; with CAF#4, 0; in the assay with CAF#5, 0. Also, the drug sensitivity score in the assay with CAF#6, in the assay with CAF#7, in the assay on LNCAP, with PF179T and in the assay on WPMY-1 was 0 each time.
Take `CC[C@H](C)C(=O)O[C@H]1C[C@H](O)C=C2C=C[C@H](C)[C@H](CC[C@@H](O)C[C@@H](O)CC(=O)O)[C@H]21` [Pravastatin] (tested concentration range 1-10000 nM): the drug sensitivity score with 22Rv1 is 0; in the assay with CAF#1, 0; in the assay with CAF#2 it was 0.3; in the assay on CAF#3, 0; in the assay on CAF#4, 0; with CAF#5, 0. Further, the drug sensitivity score with CAF#6, with CAF#7, in the assay with LNCAP, with PF179T and with WPMY-1 was 0 in each case.
As to `C[C@@H]1CN(CC(=O)Nc2ccc3c(c2)Cc2cccc(-c4cc(=O)cc(N5CCOCC5)o4)c2S3)C[C@H](C)O1` (tested concentration range 2.5-25000 nM), the drug sensitivity score in the assay with 22Rv1 was 2.5; in the assay on CAF#1 it was 0; in the assay on CAF#2, 0.4; in the assay on CAF#3, 0.2; with CAF#4, 0; in the assay on CAF#5 it was 0. In addition, the drug sensitivity score in the assay with CAF#6 was 0.2; in the assay with CAF#7, 0; in the assay on LNCAP it was 6.7; with PF179T, 0.4; with WPMY-1 it was 4.2.
Turning to `CC(=O)O[C@H]1C(=O)[C@@]2(C)[C@H]([C@H](OC(=O)c3ccccc3)[C@]3(O)C[C@H](OC(=O)[C@H](O)[C@@H](NC(=O)c4ccccc4)c4ccccc4)C(C)=C1C3(C)C)[C@]1(OC(C)=O)CO[C@@H]1C[C@@H]2O` [Paclitaxel] (tested concentration range 0.1-1000 nM), the drug sensitivity score with 22Rv1 was 22.4; in the assay on CAF#1 it was 14.8; in the assay on CAF#2, 16.8; in the assay with CAF#3, 10.8; in the assay on CAF#4, 8.8; in the assay on CAF#5, 15.4. The drug sensitivity score worked out at 15.3 in the assay on CAF#6; 24.2 in the assay on CAF#7; 31.3 with LNCAP; 18.2 in the assay with PF179T; 26.4 in the assay with WPMY-1.
In the case of `CC(C)N(C[C@H]1O[C@@H](n2cnc3c(N)ncnc32)[C@H](O)[C@@H]1O)[C@H]1C[C@@H](CCc2nc3cc(C(C)(C)C)ccc3[nH]2)C1` [Pinometostat] (tested concentration range 0.1-1000 nM), the drug sensitivity score amounted to 0 with 22Rv1; 0 with CAF#1; 0 in the assay on CAF#2; 1.5 in the assay with CAF#3; 0 in the assay on CAF#4; 0 with CAF#5. Further, the drug sensitivity score in the assay on CAF#6, in the assay with CAF#7, in the assay on LNCAP, in the assay with PF179T and with WPMY-1 was 0 each time.
Consider `CCN(CC)CCCC(C)Nc1c2ccc(Cl)cc2nc2ccc(OC)cc12` (configuration not stated) [Mepacrine] (tested concentration range 5-50000 nM), for which the drug sensitivity score with 22Rv1 amounted to 17.3; with CAF#1, 9.1; with CAF#2, 14.9; in the assay with CAF#3, 11.3; in the assay with CAF#4, 14.2; in the assay with CAF#5 it was 13.4. Also, the drug sensitivity score in the assay on CAF#6 came out at 9.9; in the assay with CAF#7 it was 12.6; with LNCAP, 19; in the assay on PF179T it was 13.7; in the assay with WPMY-1, 19.6.
Turning to `Nc1nc2[nH]cc(CCc3ccc(C(=O)N[C@@H](CCC(=O)O)C(=O)O)cc3)c2c(=O)[nH]1` [Pemetrexed] (tested concentration range 1-10000 nM), the drug sensitivity score was determined as 0 in the assay with 22Rv1; 1.2 in the assay with CAF#1; 0 in the assay with CAF#2; 0.5 with CAF#3; 0 in the assay with CAF#4; 0 in the assay with CAF#5. Also, the drug sensitivity score with CAF#6 was 0; in the assay with CAF#7, 0; with LNCAP, 9.4; with PF179T it was 0.1; with WPMY-1, 13.5.
Regarding `Nc1nc2[nH]cnc2c(=S)[nH]1` [Thioguanine] (tested concentration range 1-10000 nM), the drug sensitivity score in the assay with 22Rv1 is 8.8; in the assay on CAF#1, 1.1; in the assay on CAF#2, 3.6; in the assay with CAF#3, 0.2; with CAF#4 it was 2.9; in the assay on CAF#5, 1.8. Moreover, the drug sensitivity score in the assay on CAF#6 was determined as 3.7; in the assay on CAF#7, 4.9; with LNCAP, 0.4; with PF179T it was 4.9; in the assay on WPMY-1, 11.8.
As to `O=C(O)c1ccc(O)c2ncccc12` [IOX-1] (tested concentration range 10-100000 nM), the drug sensitivity score in the assay with 22Rv1 is 0.9; with CAF#1, 0.1; in the assay with CAF#2, 1.7; in the assay on CAF#3, 0.3; in the assay on CAF#4, 2.6; in the assay on CAF#5, 0.8. Also, the drug sensitivity score in the assay with CAF#6 worked out at 0.8; with CAF#7 it was 0.4; with LNCAP, 6.9; in the assay with PF179T, 3.9; in the assay on WPMY-1, 0.8.
On to `FC(F)(F)c1ccc(CNc2ccc(Cc3c[nH]c4ncc(Cl)cc34)cn2)cn1` [Pexidartinib] (tested concentration range 1-10000 nM), for which the drug sensitivity score in the assay on 22Rv1 amounted to 0; in the assay with CAF#1 it was 4.8; in the assay with CAF#2 it was 5.9; in the assay on CAF#3, 1.2; in the assay with CAF#4, 3; in the assay on CAF#5, 5.1. In addition, the drug sensitivity score in the assay with CAF#6 is 0; with CAF#7, 2.7; in the assay on LNCAP, 1.4; in the assay on PF179T it was 1.7; in the assay with WPMY-1 it was 0.6.
For `CC(C)(C)c1nc(-c2cccc(NS(=O)(=O)c3c(F)cccc3F)c2F)c(-c2ccnc(N)n2)s1` [Dabrafenib] (tested concentration range 0.2-2500 nM), the drug sensitivity score in the assay on 22Rv1 was determined as 5.6; with CAF#1, 1.4; with CAF#2, 0.2; in the assay on CAF#3 it was 4.5; in the assay on CAF#4, 0; with CAF#5, 3.5. Further, the drug sensitivity score in the assay on CAF#6 was 2.6; with CAF#7 it was 4.1; in the assay with LNCAP, 4.8; with PF179T, 2.1; with WPMY-1, 0.
